The record followed here is publication doi:10.1101/2020.07.22.215434v1 (biorxiv, 2020).

Each structure is given as a SMILES string.

What all share (assay): whole-cell patch clamp
Type in all cases: cell-based
On the technique in general: In patch-clamp work, channel activity is measured electrically.

Assay [1] addresses T1, hCav 3.2 (Homo sapiens, UniProt O95180). The following applies: tonic block, step -100 to -30 mV, 5 mM Ba2+, pH 7.4, room temperature.
For assay [2], the target named is T1, hCav 3.2. The following applies: read-out: % inhibition at 10 μM.
Assay [3] has as its target hCav 3.1 (Homo sapiens, UniProt O43497). To be noted: tonic block, step -100 to -30 mV, 5 mM Ba2+, pH 7.4, room temperature.

T1 sequence (O95180 whole entry): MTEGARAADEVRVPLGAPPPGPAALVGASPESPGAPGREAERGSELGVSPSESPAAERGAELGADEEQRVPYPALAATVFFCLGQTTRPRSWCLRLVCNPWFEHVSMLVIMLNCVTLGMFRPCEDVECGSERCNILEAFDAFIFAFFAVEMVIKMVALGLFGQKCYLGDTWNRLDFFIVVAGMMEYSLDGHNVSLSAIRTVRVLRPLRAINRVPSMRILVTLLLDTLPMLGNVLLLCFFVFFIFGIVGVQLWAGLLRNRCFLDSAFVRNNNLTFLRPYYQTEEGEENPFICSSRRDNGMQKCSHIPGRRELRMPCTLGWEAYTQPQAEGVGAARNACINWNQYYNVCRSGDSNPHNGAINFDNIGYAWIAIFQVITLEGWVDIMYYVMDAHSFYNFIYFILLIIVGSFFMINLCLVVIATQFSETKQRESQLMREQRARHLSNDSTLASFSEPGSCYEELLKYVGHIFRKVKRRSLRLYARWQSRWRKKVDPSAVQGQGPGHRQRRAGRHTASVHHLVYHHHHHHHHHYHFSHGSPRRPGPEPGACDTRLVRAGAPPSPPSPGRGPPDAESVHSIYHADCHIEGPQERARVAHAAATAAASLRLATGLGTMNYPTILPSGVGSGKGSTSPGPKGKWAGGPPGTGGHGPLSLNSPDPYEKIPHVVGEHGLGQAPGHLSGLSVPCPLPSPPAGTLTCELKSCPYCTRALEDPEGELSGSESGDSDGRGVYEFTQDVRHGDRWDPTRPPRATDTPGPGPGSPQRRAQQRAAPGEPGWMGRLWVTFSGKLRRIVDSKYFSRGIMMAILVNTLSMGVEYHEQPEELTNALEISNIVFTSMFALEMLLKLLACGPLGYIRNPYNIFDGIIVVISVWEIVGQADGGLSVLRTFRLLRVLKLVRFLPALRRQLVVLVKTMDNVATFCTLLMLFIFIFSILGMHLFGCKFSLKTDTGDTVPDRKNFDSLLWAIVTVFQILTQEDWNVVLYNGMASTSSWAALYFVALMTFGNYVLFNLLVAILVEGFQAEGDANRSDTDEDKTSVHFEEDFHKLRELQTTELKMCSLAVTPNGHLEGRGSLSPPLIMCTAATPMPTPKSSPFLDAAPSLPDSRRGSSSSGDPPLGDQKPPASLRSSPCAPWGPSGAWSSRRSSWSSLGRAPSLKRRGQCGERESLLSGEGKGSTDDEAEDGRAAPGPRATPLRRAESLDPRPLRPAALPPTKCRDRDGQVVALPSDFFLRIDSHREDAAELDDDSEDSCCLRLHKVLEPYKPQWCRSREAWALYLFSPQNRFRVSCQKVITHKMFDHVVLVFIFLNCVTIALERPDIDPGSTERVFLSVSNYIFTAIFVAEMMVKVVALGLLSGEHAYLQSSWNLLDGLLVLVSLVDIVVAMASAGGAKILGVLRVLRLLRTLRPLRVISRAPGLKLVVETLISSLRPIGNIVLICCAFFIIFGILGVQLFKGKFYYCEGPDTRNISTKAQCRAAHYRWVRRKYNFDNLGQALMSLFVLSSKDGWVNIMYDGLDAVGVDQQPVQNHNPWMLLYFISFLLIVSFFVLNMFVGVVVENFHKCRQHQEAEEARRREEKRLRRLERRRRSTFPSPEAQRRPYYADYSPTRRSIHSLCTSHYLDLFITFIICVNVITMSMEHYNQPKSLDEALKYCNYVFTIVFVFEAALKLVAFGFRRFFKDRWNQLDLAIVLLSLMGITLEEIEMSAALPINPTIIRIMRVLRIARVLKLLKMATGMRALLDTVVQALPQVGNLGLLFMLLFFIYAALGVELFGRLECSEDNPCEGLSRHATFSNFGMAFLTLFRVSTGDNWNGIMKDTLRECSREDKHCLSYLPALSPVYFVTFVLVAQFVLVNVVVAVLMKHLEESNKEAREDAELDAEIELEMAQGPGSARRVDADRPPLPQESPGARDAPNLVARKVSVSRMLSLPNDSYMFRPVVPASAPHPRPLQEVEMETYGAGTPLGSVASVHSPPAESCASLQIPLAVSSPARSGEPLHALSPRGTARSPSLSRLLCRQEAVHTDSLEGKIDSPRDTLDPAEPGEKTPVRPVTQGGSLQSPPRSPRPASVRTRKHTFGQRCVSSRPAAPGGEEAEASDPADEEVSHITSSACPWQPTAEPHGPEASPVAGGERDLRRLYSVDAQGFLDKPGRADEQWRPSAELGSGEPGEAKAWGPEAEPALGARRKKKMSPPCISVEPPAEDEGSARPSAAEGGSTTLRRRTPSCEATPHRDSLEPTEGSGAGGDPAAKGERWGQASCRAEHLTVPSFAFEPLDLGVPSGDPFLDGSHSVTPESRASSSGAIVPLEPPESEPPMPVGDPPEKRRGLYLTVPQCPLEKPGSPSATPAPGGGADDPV
Sequence of hCav 3.1 (O43497 whole entry): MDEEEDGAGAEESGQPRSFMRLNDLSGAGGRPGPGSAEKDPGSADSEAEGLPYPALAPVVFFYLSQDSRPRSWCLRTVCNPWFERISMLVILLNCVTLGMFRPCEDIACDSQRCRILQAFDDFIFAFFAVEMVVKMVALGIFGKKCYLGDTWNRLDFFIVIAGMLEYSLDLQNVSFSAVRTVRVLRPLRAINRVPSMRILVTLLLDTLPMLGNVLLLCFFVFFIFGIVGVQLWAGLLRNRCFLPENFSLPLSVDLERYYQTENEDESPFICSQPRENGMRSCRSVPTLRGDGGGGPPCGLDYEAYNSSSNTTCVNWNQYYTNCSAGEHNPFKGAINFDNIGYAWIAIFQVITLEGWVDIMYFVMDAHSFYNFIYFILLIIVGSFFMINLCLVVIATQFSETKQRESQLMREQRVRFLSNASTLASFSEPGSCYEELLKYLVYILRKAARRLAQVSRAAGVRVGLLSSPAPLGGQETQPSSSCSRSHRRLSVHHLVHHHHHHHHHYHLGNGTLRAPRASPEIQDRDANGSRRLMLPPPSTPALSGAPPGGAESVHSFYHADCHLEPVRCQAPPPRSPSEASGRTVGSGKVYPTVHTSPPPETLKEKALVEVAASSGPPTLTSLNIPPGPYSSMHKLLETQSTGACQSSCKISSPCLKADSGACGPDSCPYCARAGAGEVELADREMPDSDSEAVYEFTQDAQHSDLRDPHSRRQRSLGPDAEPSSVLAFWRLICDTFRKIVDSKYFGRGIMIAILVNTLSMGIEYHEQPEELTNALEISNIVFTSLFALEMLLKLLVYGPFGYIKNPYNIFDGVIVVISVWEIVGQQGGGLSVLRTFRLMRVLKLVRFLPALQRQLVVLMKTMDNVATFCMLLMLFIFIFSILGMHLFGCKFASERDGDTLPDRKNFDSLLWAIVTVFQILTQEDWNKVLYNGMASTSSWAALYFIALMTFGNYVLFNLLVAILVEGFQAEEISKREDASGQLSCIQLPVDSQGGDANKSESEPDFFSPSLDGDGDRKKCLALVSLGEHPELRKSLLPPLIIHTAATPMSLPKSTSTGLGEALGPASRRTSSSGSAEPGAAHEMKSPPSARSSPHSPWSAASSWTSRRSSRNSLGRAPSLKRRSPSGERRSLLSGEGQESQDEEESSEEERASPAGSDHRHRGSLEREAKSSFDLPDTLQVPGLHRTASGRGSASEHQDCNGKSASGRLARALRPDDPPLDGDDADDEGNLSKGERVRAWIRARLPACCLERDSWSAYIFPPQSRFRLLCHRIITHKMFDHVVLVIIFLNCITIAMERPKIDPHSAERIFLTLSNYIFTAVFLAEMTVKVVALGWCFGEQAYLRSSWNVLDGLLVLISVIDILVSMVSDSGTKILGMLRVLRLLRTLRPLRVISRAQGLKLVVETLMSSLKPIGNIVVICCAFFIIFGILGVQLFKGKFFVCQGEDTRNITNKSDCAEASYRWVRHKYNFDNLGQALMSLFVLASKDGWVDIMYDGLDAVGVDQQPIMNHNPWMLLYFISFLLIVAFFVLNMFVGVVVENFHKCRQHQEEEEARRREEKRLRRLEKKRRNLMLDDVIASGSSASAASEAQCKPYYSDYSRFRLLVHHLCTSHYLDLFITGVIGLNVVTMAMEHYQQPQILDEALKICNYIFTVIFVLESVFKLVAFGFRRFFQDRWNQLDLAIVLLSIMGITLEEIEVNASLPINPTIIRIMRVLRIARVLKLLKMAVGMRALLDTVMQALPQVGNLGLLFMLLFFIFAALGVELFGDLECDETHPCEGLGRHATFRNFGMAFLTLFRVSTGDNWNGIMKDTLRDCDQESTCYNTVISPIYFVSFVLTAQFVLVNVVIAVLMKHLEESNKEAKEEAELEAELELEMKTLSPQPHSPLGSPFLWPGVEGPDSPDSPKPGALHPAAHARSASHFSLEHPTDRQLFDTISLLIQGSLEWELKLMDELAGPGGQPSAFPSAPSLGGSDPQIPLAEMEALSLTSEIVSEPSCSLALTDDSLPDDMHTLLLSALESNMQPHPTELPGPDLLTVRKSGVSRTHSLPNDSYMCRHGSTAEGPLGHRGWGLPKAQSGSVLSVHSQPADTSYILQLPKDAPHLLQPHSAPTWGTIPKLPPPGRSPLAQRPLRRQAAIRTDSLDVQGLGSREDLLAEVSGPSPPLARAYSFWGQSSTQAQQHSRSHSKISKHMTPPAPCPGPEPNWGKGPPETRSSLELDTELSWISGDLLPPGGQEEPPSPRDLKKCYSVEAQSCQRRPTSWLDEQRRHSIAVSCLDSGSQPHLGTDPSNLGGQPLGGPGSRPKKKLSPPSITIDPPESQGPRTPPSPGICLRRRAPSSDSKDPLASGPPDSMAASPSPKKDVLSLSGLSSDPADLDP

As usually defined, the IC50 is the concentration that inhibits the measured activity by half. The low end stands for inhibition by little substance, the high end for a need for much substance. As to `COC(=O)C(NC(=O)c1nn(CC2CCCCC2)c2ccccc12)C(C)C` (centres unmarked) [AMB-CHMINACA, methyl 2-((1-(cyclohexylmethyl)-1H-indazole-3-carbonyl)amino)-3-methylbutanoate], in assay [1], the 50% inhibitory concentration (IC50) worked out at 740 ± 300 nM.

In general, inhibition refers to the relative decrease from the control value, in per cent. As for `C=C(C)[C@@H]1CCC(C)=C[C@H]1c1c(O)cc(CCCCC)cc1O` [CBD], the inhibition at 10 µM in assay [2] is 57 ± 5%.

In the case of `COC(=O)C(NC(=O)c1cn(CC2CCCCC2)c2ccccc12)C(C)(C)C` (centres unmarked) [MDMB-CHMICA, methyl-2-[[1-(cyclohexylmethyl)indole-3-carbonyl]amino]-3,3-dimethylbutanoate], in assay [1], the IC50 was determined as 1500 ± 200 nM.

One may read the % inhibition as the drop in the measured response relative to a control, in per cent. Higher therefore signals a response far below the control. On to `COC(=O)[C@@H](NC(=O)c1nn(CC2CCCCC2)c2ccccc12)C(C)(C)C` [MDMB-CHMINACA], for which, in assay [3], the “% inhibition at 10 μM” value is on record as greater than 80%.

Regarding `CCCCCc1cc(O)c2c(c1)OC(C)(C)[C@@H]1CCC(C)=C[C@@H]21` [Δ9-THC], in assay [2], the inhibition at 10 µM worked out at 43 ± 2.4%.
